One may read the IC50 as the point on the concentration scale where inhibition reaches its midpoint.

The assay addresses USP1 (construct USP1 (I-785, GG670, 671AA)/UAF1 (I-677)-Flag) (Homo sapiens (Human), UniProt O94782, G670A/G671A). In words: Ubiquitin-Rhodamine 110 assay for USP1 activity. Particulars: USP1/UAF1 25 pM, Ub-Rh110 25 nM, 30 min preincubation. Format: biochemical. The method, boiled down:
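Two formats with the USP1/UAF1 complex and 25 nM ubiquitin-rhodamine 110 in pH 8.0 Tris buffer with calcium, glutathione and detergent. Single-point screening used 10 µM, 100 pM enzyme and 45 min. Inhibition was set against no-enzyme and DMSO wells.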

Chain of USP1 (construct USP1 (I-785, GG670, 671AA)/UAF1 (I-677)-Flag) (O94782 whole entry G670A/G671A): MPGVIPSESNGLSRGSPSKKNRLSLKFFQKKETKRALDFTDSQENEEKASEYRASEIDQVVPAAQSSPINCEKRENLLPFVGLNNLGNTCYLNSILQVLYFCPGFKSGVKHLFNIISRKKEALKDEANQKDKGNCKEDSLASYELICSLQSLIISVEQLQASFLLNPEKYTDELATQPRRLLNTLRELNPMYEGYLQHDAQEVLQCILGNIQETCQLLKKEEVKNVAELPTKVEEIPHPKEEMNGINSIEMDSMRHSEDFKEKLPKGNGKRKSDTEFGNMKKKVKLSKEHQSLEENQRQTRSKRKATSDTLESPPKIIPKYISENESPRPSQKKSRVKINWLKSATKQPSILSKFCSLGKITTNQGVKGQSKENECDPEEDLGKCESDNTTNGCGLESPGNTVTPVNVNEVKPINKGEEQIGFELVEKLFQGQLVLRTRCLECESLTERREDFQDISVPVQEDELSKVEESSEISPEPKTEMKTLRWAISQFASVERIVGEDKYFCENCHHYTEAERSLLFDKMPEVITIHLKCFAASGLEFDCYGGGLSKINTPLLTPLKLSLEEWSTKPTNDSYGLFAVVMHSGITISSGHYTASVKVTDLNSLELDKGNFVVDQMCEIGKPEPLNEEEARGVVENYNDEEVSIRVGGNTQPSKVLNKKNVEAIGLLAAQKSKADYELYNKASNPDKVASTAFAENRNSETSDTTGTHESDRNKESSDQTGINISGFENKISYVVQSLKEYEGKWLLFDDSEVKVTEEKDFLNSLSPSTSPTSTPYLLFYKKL
Chain of USP1 (construct USP1 (I-785, GG670, 671AA)/UAF1 (I-677)-Flag) (Q8TAF3 whole entry partner): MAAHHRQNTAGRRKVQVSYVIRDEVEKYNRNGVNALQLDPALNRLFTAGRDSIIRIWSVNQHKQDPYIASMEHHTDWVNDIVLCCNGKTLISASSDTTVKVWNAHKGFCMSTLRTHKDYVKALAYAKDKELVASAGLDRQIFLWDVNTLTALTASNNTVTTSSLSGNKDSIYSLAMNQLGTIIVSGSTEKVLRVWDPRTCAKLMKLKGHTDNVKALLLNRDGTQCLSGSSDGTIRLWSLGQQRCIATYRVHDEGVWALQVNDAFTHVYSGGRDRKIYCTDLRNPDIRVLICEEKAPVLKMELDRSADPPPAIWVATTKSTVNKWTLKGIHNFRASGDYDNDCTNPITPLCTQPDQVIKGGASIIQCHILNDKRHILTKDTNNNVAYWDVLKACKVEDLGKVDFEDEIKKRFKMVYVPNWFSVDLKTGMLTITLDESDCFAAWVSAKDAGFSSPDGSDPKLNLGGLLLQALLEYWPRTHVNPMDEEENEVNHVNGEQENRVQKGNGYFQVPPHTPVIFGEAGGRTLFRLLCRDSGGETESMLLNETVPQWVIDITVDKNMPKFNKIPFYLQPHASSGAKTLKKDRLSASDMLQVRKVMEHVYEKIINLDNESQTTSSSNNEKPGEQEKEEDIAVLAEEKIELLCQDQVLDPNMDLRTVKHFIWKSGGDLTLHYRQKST

For `CC(C)c1ccccc1-c1ncc2c(n1)n(Cc1ccc(NCC3CC3)cc1)c(=O)n2C` [Compound I-488, 9-(4-((cyclopropylmethyl)amino)benzyl)-2-(2-isopropylphenyl)-7-methyl-7,9-dihydro-8H-purin-8-one], the IC50 fell in the range of 50 to 200 nM.

In the case of `CC(C)c1ccccc1-c1ncc2[nH]c(=O)n(Cc3ccc(-n4cccn4)cc3)c2n1` [Compound I-145, 9-(4-(1H-pyrazol-1-yl)benzyl)-2-(2-isopropylphenyl)-7,9-dihydro-8H-purin-8-one], the IC50 is below 50 nM.

In turn, `CC(C)c1ccccc1-c1ncc2[nH]c(=O)n(Cc3ccc(C(=O)NC4(c5ccccc5)CCCC4)cc3)c2n1` [Compound I-359, 4-((2-(2-isopropylphenyl)-8-oxo-7,8-dihydro-9H-purin-9-yl)methyl)-N-(1-phenylcyclopentyl)benzamide] had an IC50 of 50 to 200 nM.

`CC(C)c1ccccc1-c1ncc2[nH]c(=O)n(Cc3ccc(-n4cc(-c5ccccn5)nn4)cc3)c2n1` [Compound I-349, 2-(2-isopropylphenyl)-9-(4-(4-(pyridin-2-yl)-1H-1,2,3-triazol-1-yl)benzyl)-7,9-dihydro-8H-purin-8-one] registered an IC50 of 200 to 2000 nM.

Compound `Cn1cc(C(F)(F)F)nc1-c1ccc(Cn2c(=O)n(C)c3cnc(-c4cccnc4C(F)F)nc32)cc1` [Compound I-72, 2-(2-(difluoromethyl)pyridin-3-yl)-7-methyl-9-(4-(1-methyl-4-(trifluoromethyl)-1H-imidazol-2-yl)benzyl)-7,9-dihydro-8H-purin-8-one] yielded an IC50 of 200 to 2000 nM.

In the case of `CC(C)c1ccccc1-c1ncc2[nH]c(=O)n(Cc3ccc(-c4nccn5ccnc45)cc3)c2n1` [Compound I-291, 9-(4-(imidazo[1,2-a]pyrazin-8-yl)benzyl)-2-(2-isopropylphenyl)-7,9-dihydro-8H-purin-8-one], the IC50 was below 50 nM.

In turn, `CC(C)c1c(F)cccc1-c1ncc2[nH]c(=O)n(Cc3ccc(-n4ccc(C5CCN(C)CC5)n4)cc3)c2n1` [Compound I-441, 2-(3-fluoro-2-isopropylphenyl)-9-(4-(3-(1-methylpiperidin-4-yl)-1H-pyrazol-1-yl)benzyl)-7,9-dihydro-8H-purin-8-one] showed an IC50 of 50 to 200 nM.

`CC(C)c1ccccc1-c1ncc2[nH]c(=O)n(Cc3ccc(C(=O)Nc4nccn4C)cc3)c2n1` [Compound I-372, 4-((2-(2-isopropylphenyl)-8-oxo-7,8-dihydro-9H-purin-9-yl)methyl)-N-(1-methyl-1H-imidazol-2-yl)benzamide] had an IC50 of 50 to 200 nM.

`CC(C)c1ncccc1-c1ncc2c(n1)n(Cc1ccc(-n3cccn3)cc1)c(=O)n2C` [Compound I-7, 9-(4-(1H-pyrazol-1-yl)benzyl)-2-(2-isopropylpyridin-3-yl)-7-methyl-7,9-dihydro-8H-purin-8-one]: the IC50 lay within 200 to 2000 nM.

Take `CC(C)c1ccccc1-c1ncc2c(n1)n(CC1CCN(c3ncccn3)CC1)c(=O)n2C` [Compound I-493, 2-(2-isopropylphenyl)-7-methyl-9-((1-(pyrimidin-2-yl)piperidin-4-yl)methyl)-7,9-dihydro-8H-purin-8-one]: the IC50 is above 2000 nM.

Compound `CC(C)c1ccccc1-c1ncc2c(n1)n(Cc1ccc(-c3nccn3C(C)C)cc1)c(=O)n2C` [Compound I-497, 9-(4-(1-isopropyl-1H-imidazol-2-yl)benzyl)-2-(2-isopropylphenyl)-7-methyl-7,9-dihydro-8H-purin-8-one] displayed an IC50 below 50 nM.

As to `Cc1cc(C(F)(F)F)nn1-c1ccc(Cn2c(=O)n(C)c3cnc(-c4cccnc4C(C)C)nc32)cc1` [Compound I-113, 2-(2-isopropylpyridin-3-yl)-7-methyl-9-(4-(5-methyl-3-(trifluoromethyl)-1H-pyrazol-1-yl)benzyl)-7,9-dihydro-8H-purin-8-one], the IC50 was below 50 nM.

`Cc1cc(C)n(-c2ccc([C@@H](C)n3c(=O)[nH]c4cnc(-c5ccccc5C(C)C)nc43)cc2)n1` [Compound I-190, (R)-9-(1-(4-(3,5-dimethyl-1H-pyrazol-1-yl)phenyl)ethyl)-2-(2-isopropylphenyl)-7,9-dihydro-8H-purin-8-one] displayed a half-inhibitory concentration (IC50) below 50 nM.

With `CC(C)c1ccccc1-c1ncc2[nH]c(=O)n(Cc3ccc(-c4ncccn4)cc3)c2n1` [Compound I-255, 2-(2-isopropylphenyl)-9-(4-(pyrimidin-2-yl)benzyl)-7,9-dihydro-8H-purin-8-one], the IC50 was in the range of 50 to 200 nM.

`CC(C)c1ccccc1-c1ncc2c(n1)n(Cc1cccc(OCc3ccccn3)c1)c(=O)n2C` [Compound I-242, 2-(2-isopropylphenyl)-7-methyl-9-(3-(pyridin-2-ylmethoxy)benzyl)-7,9-dihydro-8H-purin-8-one] registered an IC50 above 2000 nM.

In turn, `CC(C)c1ccccc1-c1ncc2[nH]c(=O)n(Cc3ccc(-c4ncsc4CO)cc3)c2n1` [Compound I-302, 9-(4-(5-(hydroxymethyl)thiazol-4-yl)benzyl)-2-(2-isopropylphenyl)-7,9-dihydro-8H-purin-8-one] had an IC50 below 50 nM.

`COCCN(C)c1ncccc1-c1ncc2[nH]c(=O)n(Cc3ccc(-c4nc(C(F)(F)F)cn4C)cc3)c2n1` [Compound I-327, 2-(2-((2-methoxyethyl)(methyl)amino)pyridin-3-yl)-9-(4-(1-methyl-4-(trifluoromethyl)-1H-imidazol-2-yl)benzyl)-7,9-dihydro-8H-purin-8-one] registered an IC50 of 50 to 200 nM.

The compound `CC(C)c1c(Cl)cccc1-c1ncc2[nH]c(=O)n(Cc3ccc(-n4cccn4)cc3)c2n1` [Compound I-93, 9-(4-(1H-pyrazol-1-yl)benzyl)-2-(3-chloro-2-isopropylphenyl)-7,9-dihydro-8H-purin-8-one] registered an IC50 of 50 to 200 nM.

`COC(=O)c1ccccc1-c1ncc2[nH]c(=O)n(Cc3ccc(-c4nc(C(F)(F)F)cn4C)cc3)c2n1` [Compound I-524, Methyl 2-(9-(4-(1-Methyl-4-(trifluoromethyl)-1H-imidazol-2-yl)benzyl)-8-oxo-8,9-dihydro-7H-purin-2-yl)benzoate] had an IC50 below 50 nM.

Compound `CC(C)c1ccccc1-c1ncc2c(n1)n(Cc1ccc(-c3nccn3C3CCNCC3)cc1)c(=O)n2C` [Compound I-499, 2-(2-isopropylphenyl)-7-methyl-9-(4-(1-(piperidin-4-yl)-1H-imidazol-2-yl)benzyl)-7,9-dihydro-8H-purin-8-one] returned an IC50 below 50 nM.

`CC(C)c1ccccc1-c1ncc2c(n1)n(Cc1ccc(-n3ccc(C4CCNCC4)n3)cc1)c(=O)n2C` [Compound I-433, 2-(2-isopropylphenyl)-7-methyl-9-(4-(3-(piperidin-4-yl)-1H-pyrazol-1-yl)benzyl)-7,9-dihydro-8H-purin-8-one]: the IC50 was in the range of 200 to 2000 nM.

In the case of `CC(C)c1ccccc1-c1ncc2[nH]c(=O)n(Cc3ccc(-n4cc(CS(C)(=O)=O)nn4)cc3)c2n1` [Compound I-350, 2-(2-isopropylphenyl)-9-(4-(4-((methylsulfonyl)methyl)-1H-1,2,3-triazol-1-yl)benzyl)-7,9-dihydro-8H-purin-8-one], the IC50 was above 2000 nM.

In the case of `Cn1cc(C(F)(F)F)nc1-c1ccc(Cn2c(=O)n(C)c3cnc(-c4ccccc4C(C)(C)O)nc32)cc1` [Compound I-132, 2-(2-(2-hydroxypropan-2-yl)phenyl)-7-methyl-9-(4-(1-methyl-4-(trifluoromethyl)-1H-imidazol-2-yl)benzyl)-7,9-dihydro-8H-purin-8-one], the IC50 is below 50 nM.

Regarding `Cc1ncccc1-c1ncc2c(n1)n(Cc1ccc(-c3nc(C(F)(F)F)cn3C)cc1)c(=O)n2C` [Compound I-62, 7-methyl-9-(4-(1-methyl-4-(trifluoromethyl)-1H-imidazol-2-yl)benzyl)-2-(2-methylpyridin-3-yl)-7,9-dihydro-8H-purin-8-one], the IC50 was 200 to 2000 nM.

`Cn1cc(C(F)(F)F)nc1-c1ccc(Cn2c(=O)[nH]c3cnc(-c4cccnc4N4CC(F)C4)nc32)cc1` [Compound I-334, 2-(2-(3-fluoroazetidin-1-yl)pyridin-3-yl)-9-(4-(1-methyl-4-(trifluoromethyl)-1H-imidazol-2-yl)benzyl)-7,9-dihydro-8H-purin-8-one]: the IC50 is below 50 nM.

The compound `CC(C)c1ccccc1-c1ncc2[nH]c(=O)n(Cc3ccc(-n4cc(-c5ccccc5)nn4)cc3)c2n1` [Compound I-340, 2-(2-isopropylphenyl)-9-(4-(4-phenyl-1H-1,2,3-triazol-1-yl)benzyl)-7,9-dihydro-8H-purin-8-one] returned an IC50 of 200 to 2000 nM.

In turn, `Cn1cc(C(F)(F)F)nc1-c1ccc(Cn2c(=O)[nH]c3cnc(-c4cccc5ccn(C)c45)nc32)cc1` [Compound I-45, 2-(1-methyl-1H-indol-7-yl)-9-(4-(1-methyl-4-(trifluoromethyl)-1H-imidazol-2-yl)benzyl)-7,9-dihydro-8H-purin-8-one] displayed an IC50 below 50 nM.

`CC(C)c1ccccc1-c1ncc2[nH]c(=O)n(Cc3ccc(C(=O)NCCN(C)C)cc3)c2n1` [Compound I-408, N-(2-(dimethylamino)ethyl)-4-((2-(2-isopropylphenyl)-8-oxo-7,8-dihydro-9H-purin-9-yl)methyl)benzamide] returned an IC50 above 2000 nM.

Regarding `CC(C)c1ccccc1-c1ncc2c(n1)n(Cc1ccc(NS(=O)(=O)c3ccn(C)n3)cc1)c(=O)n2C` [Compound I-453, N-(4-((2-(2-isopropylphenyl)-7-methyl-8-oxo-7,8-dihydro-9H-purin-9-yl)methyl)phenyl)-1-methyl-1H-pyrazole-3-sulfonamide], the IC50 was above 2000 nM.

`CC1CCCN(C(=O)c2ccc(Cn3c(=O)[nH]c4cnc(-c5ccccc5C(C)C)nc43)cc2)C1` (stereo not shown) [Compound I-399, 2-(2-isopropylphenyl)-9-(4-(3-methylpiperidine-1-carbonyl)benzyl)-7,9-dihydro-8H-purin-8-one] gave an IC50 below 50 nM.

In turn, `CC(C)c1ccccc1-c1ncc2[nH]c(=O)n(Cc3ccc(-c4nc(Cl)cn4C)cc3)c2n1` [Compound I-198, 9-(4-(4-chloro-1-methyl-1H-imidazol-2-yl)benzyl)-2-(2-isopropylphenyl)-7,9-dihydro-8H-purin-8-one] displayed an IC50 below 50 nM.
